The values below come from ChEMBL document CHEMBL4002607, “Sulfamic and succinic acid derivatives of 25-OH-PPD and their activities to MCF-7, A-549, HCT-116, and BGC-823 cell lines” (Bioorg Med Chem Lett, 2017).

The subject of assay [1] is BGC-823. The assay can be described thus: Antiproliferative activity against human BGC823 cells after 48 hrs by MTT assay. The settings on record: BGC-823, 48 h. It is filed as functional, cell-based.
Assay [2] relates to A549. The experiment in a line: Antiproliferative activity against human A549 cells after 48 hrs by MTT assay. It is filed as functional, cell-based.
The next assay concerns MCF7. The assay can be described thus: Antiproliferative activity against human MCF7 cells after 48 hrs by MTT assay. The class given is functional, cell-based. Conditions: MCF7, 48 h; call rule not given here.
A further assay has as its system HCT-116. The experiment in a line: Antiproliferative activity against human HCT116 cells after 48 hrs by MTT assay. It is filed as functional, cell-based.
Assay [3] can be described thus: Antiproliferative activity against human IOSE-144 cells after 48 hrs by MTT assay. The class given is cell-based. The settings on record: IOSE-144, 48 h.
Assay [4] concerns BGC-823. The assay can be described thus: Antiproliferative activity against human BGC823 cells assessed as cell viability at 40 uM after 48 hrs by MTT assay relative to control. It is filed as functional. Conditions: BGC-823, 48 h, read-out: Activity.
In assay [5] the test system is A549. The experiment in a line: Antiproliferative activity against human A549 cells assessed as cell viability at 20 uM after 48 hrs by MTT assay relative to control. The class given is functional. Conditions: A549, 48 h, read-out: Activity.
Where [6] appears, read: Homo sapiens, A549, 48 h, read-out: IC50.
Where [7] appears, read: Homo sapiens, HCT-116, 48 h, read-out: IC50.

For the compound `C=C(CCCC(C)(C)O)[C@H]1CC[C@]2(C)[C@@H]1[C@H](OS(N)(=O)=O)C[C@@H]1[C@@]3(C)CC[C@H](O)C(C)(C)[C@@H]3CC[C@]12C`, the IC50 is greater than 100 µM with BGC-823 [1]; 20.9 µM in the assay on A549 [2] (setting [6]); 33.8 µM in the assay on MCF7; greater than 100 µM in the assay with HCT-116 (setting [7]); greater than 100 µM in assay [3].
Take `C=C(CCCC(C)(C)O)[C@H]1CC[C@]2(C)[C@@H]1[C@H](O)C[C@@H]1[C@@]3(C)CC[C@H](OS(N)(=O)=O)C(C)(C)[C@@H]3CC[C@]12C`: the viability at 40 µM with BGC-823 [4] worked out at 24.7%. For the same compound, the half-inhibitory concentration (IC50) in the assay with BGC-823 [1] was 21.6 µM; in the assay with A549 [2] (setting [6]), 0.8 µM; with MCF7, 11.9 µM; in the assay with HCT-116 (setting [7]), 42.4 µM; in assay [3], greater than 100 µM. Besides, the viability at 20 µM in the assay on A549 [5] came out at 9%.
On to `C=C(CCCC(C)(C)O)[C@H]1CC[C@]2(C)[C@@H]1[C@H](OS(N)(=O)=O)C[C@@H]1[C@@]3(C)CC[C@H](OS(N)(=O)=O)C(C)(C)[C@@H]3CC[C@]12C`, for which the half-inhibitory concentration (IC50) is 37.7 µM with BGC-823 [1]; 24.1 µM in the assay on A549 [2] (setting [6]); 30.3 µM in the assay on MCF7; greater than 100 µM with HCT-116 (setting [7]); greater than 100 µM in assay [3].
For `C=C(CCCC(C)(C)O)[C@H]1CC[C@]2(C)[C@@H]1[C@H](O)C[C@@H]1[C@@]3(C)CC[C@H](O)C(C)(C)[C@@H]3CC[C@]12C`, the IC50 is 34.6 µM in the assay with BGC-823 [1]; 29.2 µM with A549 [2] (setting [6]); 32.9 µM in the assay on MCF7; greater than 100 µM in the assay on HCT-116 (setting [7]); greater than 100 µM in assay [3].
With `O=c1[nH]cc(F)c(=O)[nH]1` [FLUOROURACIL], the IC50 was 34.8 µM with BGC-823 [1], 10.5 µM in the assay on A549 [2] (setting [6]), 19.2 µM with MCF7 and 29.2 µM with HCT-116 (setting [7]).
With `CC(C)(O)CCC[C@@](C)(OS(N)(=O)=O)[C@H]1CC[C@]2(C)[C@@H]1[C@H](O)C[C@@H]1[C@@]3(C)CC[C@H](OS(N)(=O)=O)C(C)(C)[C@@H]3CC[C@]12C`, the viability at 40 µM with BGC-823 [4] came out at 14.5%. Besides, the IC50 was 14.9 µM with BGC-823 [1]; 8.8 µM in the assay on A549 [2] (setting [6]); 12.4 µM in the assay with MCF7; 41.5 µM in the assay on HCT-116 (setting [7]); greater than 100 µM in assay [3].
Turning to `CC(C)(O)CCC[C@@](C)(O)[C@H]1CC[C@]2(C)[C@@H]1[C@H](O)C[C@@H]1[C@@]3(C)CC[C@H](O)C(C)(C)[C@@H]3CC[C@]12C`, in the assay on BGC-823 [4], the viability at 40 µM came out at 40.1%. The IC50 in the assay on BGC-823 [1] was 33.2 µM; in the assay on A549 [2] (setting [6]), 5.9 µM; with MCF7 it was 7.5 µM; in the assay with HCT-116 (setting [7]), 21.5 µM; in assay [3] it was greater than 100 µM. Also, the viability at 20 µM with A549 [5] was found to be 36.5%.
`CC(C)(O)CCC[C@@](C)(O)[C@H]1CC[C@]2(C)[C@@H]1[C@H](O)C[C@@H]1[C@@]3(C)CC[C@H](OS(N)(=O)=O)C(C)(C)[C@@H]3CC[C@]12C`: the viability at 40 µM in the assay on BGC-823 [4] was found to be 40%. Further, the IC50 in the assay with BGC-823 [1] is 14 µM; in the assay on A549 [2] (setting [6]), 0.2 µM; with MCF7, 14.6 µM; with HCT-116 (hct-116) it was “Not Active”; in assay [3], greater than 100 µM. Moreover, the viability at 20 µM in the assay with A549 [5] was found to be 6%.
Regarding `CC(C)(O)CCC[C@@](C)(O)[C@H]1CC[C@]2(C)[C@@H]1[C@H](OC(=O)CCC(=O)O)C[C@@H]1[C@@]3(C)CC[C@H](O)C(C)(C)[C@@H]3CC[C@]12C`, the IC50 is greater than 100 µM in the assay with BGC-823 [1]; greater than 100 µM in the assay with A549 [2] (setting [6]); 77.1 µM in the assay on MCF7; 75.3 µM in the assay with HCT-116 (setting [7]); greater than 100 µM in assay [3].
As for `C=C(CCCC(C)(C)OS(N)(=O)=O)[C@H]1CC[C@]2(C)[C@@H]1[C@H](O)C[C@@H]1[C@@]3(C)CC[C@H](O)C(C)(C)[C@@H]3CC[C@]12C`, the viability at 40 µM in the assay with BGC-823 [4] worked out at 39.9%. Moreover, the half-inhibitory concentration (IC50) in the assay on BGC-823 [1] was 32 µM; in the assay on A549 [2] (setting [6]), 13.7 µM; in the assay on MCF7, 20.8 µM; with HCT-116 (hct-116), “Not Active”; in assay [3] it was greater than 100 µM.
For `CC(C)(O)CCC[C@@](C)(O)[C@H]1CC[C@]2(C)[C@@H]1[C@H](OC(=O)CCC(=O)O)C[C@@H]1[C@@]3(C)CC[C@H](OC(=O)CCC(=O)O)C(C)(C)[C@@H]3CC[C@]12C`, the half-maximal inhibitory concentration (IC50) in the assay on BGC-823 [1] was greater than 100 µM; with A549 [2] (setting [6]), greater than 100 µM; in the assay with MCF7, 40.3 µM; with HCT-116 (setting [7]) it was greater than 100 µM; in assay [3] it was greater than 100 µM.
On to `C=C(CCC=C(C)C)[C@H]1CC[C@]2(C)[C@@H]1[C@H](OS(N)(=O)=O)C[C@@H]1[C@@]3(C)CC[C@H](O)C(C)(C)[C@@H]3CC[C@]12C`, for which the viability at 40 µM with BGC-823 [4] amounted to 21.2%. Further, the 50% inhibitory concentration (IC50) was 25.9 µM in the assay on BGC-823 [1]; “Not Active” in the assay with A549 [2] (a549); 13.5 µM with MCF7; “Not Active” in the assay with HCT-116 (hct-116); greater than 100 µM in assay [3].
Take `CC(C)=CCC[C@@](C)(O)[C@H]1CC[C@]2(C)[C@@H]1[C@H](OS(N)(=O)=O)C[C@@H]1[C@@]3(C)CC[C@H](O)C(C)(C)[C@@H]3CC[C@]12C`: the viability at 40 µM with BGC-823 [4] was 19.9%. The concentration for half-maximal inhibition (IC50) in the assay on BGC-823 [1] is 25.5 µM; in the assay on A549 [2] (setting [6]), 23.8 µM; with MCF7, 18.2 µM; with HCT-116 (setting [7]) it was 57.9 µM; in assay [3], greater than 100 µM.
Regarding `CC(C)=CCC[C@@](C)(O)[C@H]1CC[C@]2(C)[C@@H]1[C@H](O)C[C@@H]1[C@@]3(C)CC[C@H](OS(N)(=O)=O)C(C)(C)[C@@H]3CC[C@]12C`, the viability at 40 µM in the assay with BGC-823 [4] is 17.1%. Further, the IC50 is 22.1 µM in the assay with BGC-823 [1]; 9.9 µM in the assay on A549 [2] (setting [6]); 14.5 µM in the assay on MCF7; 26.8 µM in the assay with HCT-116 (setting [7]); greater than 100 µM in assay [3].
